# Laboratory results: patent EP1022028A1, “SUSTAINED-RELEASE ORAL PREPARATION” (Takeda Chemical Industries, Ltd., priority 1997, dated 1999)
# How the values were obtained:
# [1] = acute oral toxicity (LD50) in rats; conditions: rat, in vivo, rats (Wistar)
# Source text: (§1) The sustained-release oral preparation of the present invention is low in toxic potential and can be administered safely to mammals (e.g. cat, bovine, dog, horse, goat, monkey, human) requiring the treatment or prophylaxis of diabetes or inhibition of postprandial hyperglycemia. Particularly, the valiolamine derivative for use in the present invention, for example [2-hydroxy-1-(hydroxymethyl)ethyl]valiolamine (voglibose), is very high in safety rating with the acute oral toxicity (LD50) values in mice (NRM1) and rats (Wistar) being 14.7 ∼ 21.5 grams/kilogram body weight (mice) and about 20 grams/kilogram body weight (rats), respectively.
# [2] = acute oral toxicity (LD50) in mice; conditions: mouse, in vivo, mice (NRM1)
# Source text: as §1
structure (smiles),measurement,setting,value
"OCC(CO)N[C@H]1C[C@](O)(CO)[C@@H](O)[C@H](O)[C@H]1O [voglibose, 1L(1S)-(1(OH)2,3,5/1,3)-5-[[2-hydroxy-1-(hydroxymethyl)ethyl]amino]-1-C-(hydroxymethyl)-1,2,3,4-cyclohexanetetrol]",LD50,[1],~20000 mg/kg
same,LD50,[2],14700 to 21500 mg/kg
